How the values were obtained:
[1] = molecular target: T1, DNMT3B (Homo sapiens, UniProt Q9UBC3); assay: Epigenetics selectivity panel (BPS Bioscience); format: biochemical
T1 construct: purchased BPS Bioscience (contract panel)

[2] = molecular target: T2, EZH1 (Homo sapiens, UniProt Q92800); assay: Epigenetics selectivity panel (BPS Bioscience); format: biochemical
T2 construct: purchased DiscoverX KINOMEscan (kinases); BPS Bioscience (epigenetic targets)

[3] = molecular target: T3, PRMT4 (Homo sapiens, UniProt Q86X55); assay: Epigenetics selectivity panel (BPS Bioscience); format: biochemical
T3 construct: purchased DiscoverX KINOMEscan (kinases); BPS Bioscience (epigenetic targets)

[4] = molecular target: T4, PRMT5 (Homo sapiens, UniProt O14744); assay: Epigenetics selectivity panel (BPS Bioscience); format: biochemical
T4 construct: purchased DiscoverX KINOMEscan (kinases); BPS Bioscience (epigenetic targets)

[5] = molecular target: T5, PRMT8 (Homo sapiens, UniProt Q9NR22); assay: Epigenetics selectivity panel (BPS Bioscience); format: biochemical
T5 construct: purchased DiscoverX KINOMEscan (kinases); BPS Bioscience (epigenetic targets)

[6] = molecular target: T6, SET7-9 (Homo sapiens, UniProt Q8WTS6); assay: Epigenetics selectivity panel (BPS Bioscience); format: biochemical
T6 construct: purchased DiscoverX KINOMEscan (kinases); BPS Bioscience (epigenetic targets)

[7] = molecular target: T7, ATAD2A (Homo sapiens, UniProt Q6PL18); assay: Epigenetics selectivity panel (BPS Bioscience); format: binding
T7 construct: purchased DiscoverX KINOMEscan (kinases); BPS Bioscience (epigenetic targets)

[8] = molecular target: T8, TRIM24 (Homo sapiens, UniProt O15164); assay: Epigenetics selectivity panel (BPS Bioscience); format: binding
T8 construct: purchased DiscoverX KINOMEscan (kinases); BPS Bioscience (epigenetic targets)

[9] = molecular target: T9, JMJD2B (Homo sapiens, UniProt O94953); assay: Epigenetics selectivity panel (BPS Bioscience); format: biochemical
T9 construct: purchased DiscoverX KINOMEscan (kinases); BPS Bioscience (epigenetic targets)

[10] = molecular target: T10, JMJD2E (Homo sapiens, UniProt B2RXH2); assay: Epigenetics selectivity panel (BPS Bioscience); format: biochemical
T10 construct: purchased DiscoverX KINOMEscan (kinases); BPS Bioscience (epigenetic targets)

[11] = molecular target: T11, JMJD3 (Homo sapiens, UniProt O15054); assay: Epigenetics selectivity panel (BPS Bioscience); format: biochemical
T11 construct: purchased DiscoverX KINOMEscan (kinases); BPS Bioscience (epigenetic targets)

[12] = molecular target: T12, Jarid1A (Homo sapiens, UniProt P29375); assay: Epigenetics selectivity panel (BPS Bioscience); format: biochemical
T12 construct: purchased DiscoverX KINOMEscan (kinases); BPS Bioscience (epigenetic targets)

[13] = molecular target: T13, Jarid1B (Homo sapiens, UniProt Q9UGL1); assay: Epigenetics selectivity panel (BPS Bioscience); format: biochemical
T13 construct: purchased DiscoverX KINOMEscan (kinases); BPS Bioscience (epigenetic targets)

[14] = molecular target: T14, Human HDAC6 (Homo sapiens, UniProt Q9UBN7); assay: HDAC6 enzyme activity assay; format: biochemical
T14 construct: purchased DiscoverX KINOMEscan (kinases); BPS Bioscience (epigenetic targets)

[15] = in vivo; design: species or system mice; conditions: mouse, iv
[16] = tested on: MOLT-4; assay: Cell proliferation assay (MTS); format: cell-based; conditions: Homo sapiens, ALL, 48 h
[17] = tested on: NALM-20; assay: Cell proliferation assay (MTS); format: cell-based; conditions: Homo sapiens; ALL, 48 h
[18] = tested on: KASUMI-1; assay: Cell proliferation assay (MTS); format: cell-based; conditions: Homo sapiens, AML, 48 h
[19] = tested on: KG-1; assay: Cell proliferation assay (MTS); format: cell-based; conditions: Homo sapiens, AML, 48 h
[20] = tested on: MOLM-13; assay: Cell proliferation assay (MTS); format: cell-based; conditions: Homo sapiens, AML, 48 h
[21] = tested on: JJN3; assay: Cell proliferation assay (MTS); format: cell-based; conditions: Homo sapiens, JJN-3; MM
[22] = tested on: KMS28BM; assay: Cell proliferation assay (MTS); format: cell-based; conditions: Homo sapiens, KMS-28BM; MM
[23] = tested on: MGH-U3; assay: Cell proliferation assay (MTS); format: cell-based; conditions: Homo sapiens; Bladder
[24] = tested on: MGH-U4; assay: Cell proliferation assay (MTS); format: cell-based; conditions: Homo sapiens; Bladder
[25] = tested on: RT112; assay: Cell proliferation assay (MTS); format: cell-based; conditions: Homo sapiens, RT-112; Bladder
[26] = tested on: UM-UC-7; assay: Cell proliferation assay (MTS); format: cell-based; conditions: Homo sapiens; Bladder
[27] = tested on: HELA; assay: Cell proliferation assay (MTS); format: cell-based; conditions: Homo sapiens, Cervical
[28] = tested on: 451-LU; assay: Cell proliferation assay (MTS); format: cell-based; conditions: Homo sapiens, Melanoma
[29] = tested on: WM-35; assay: Cell proliferation assay (MTS); format: cell-based; conditions: Homo sapiens, WM35; Melanoma
[30] = tested on: PC3; assay: Cell proliferation assay (MTS); format: cell-based; conditions: Homo sapiens, PC-3; Prostate
[31] = tested on: HCC95; assay: Cell proliferation assay (MTS); format: cell-based; conditions: Homo sapiens, SCLC
[32] = molecular target: T15, ALK (Homo sapiens, UniProt Q9UM73); assay: KINOMEscan kinase profiling; format: binding
T15 construct: purchased DiscoverRx (KINOMEscan contract screen)
Procedure: (§1) Kinase Selectivity Profiling
(§2) (out of which 90 are non-mutant kinases) was performed at DiscoverRx (http://www.discoverx.com/home) using the KINOMEscan™ screening platform at a test concentration of 10 µM. Results for primary screen […]
(§3) positive control signal) / (negative control signal – positive control signal) *100, where negative control corresponds to DMSO treatment (100%) and positive control to the signal obtained with a control competitive compound (0%). […]
(§4) using the Hill equation. Each target was assayed in duplicate. […]

[33] = molecular target: T16, ERBB2 (Homo sapiens, UniProt P04626); assay: KINOMEscan kinase profiling; format: binding
T16 construct: purchased DiscoverRx (DiscoverX), KINOMEscan screening platform
Procedure: as §1, §2, §3, §4

[34] = molecular target: T17, FAK (Homo sapiens, UniProt Q05397); assay: KINOMEscan kinase profiling; format: binding; conditions: read-out: Percent Control
T17 construct: purchased DiscoverX KINOMEscan (kinases); BPS Bioscience (epigenetic targets)
Procedure: as §1, §2, §3, §4

[35] = molecular target: T18, KIT(D816V) (Homo sapiens, UniProt P10721, D816V); assay: KINOMEscan kinase profiling; format: binding; conditions: read-out: Percent Control
T18 construct: purchased DiscoverX KINOMEscan (kinases); BPS Bioscience (epigenetic targets)
Procedure: as §1, §2, §3, §4

[36] = molecular target: T19, LKB1 (Homo sapiens, UniProt Q15831); assay: KINOMEscan kinase profiling; format: binding; conditions: read-out: Percent Control
T19 construct: purchased DiscoverX KINOMEscan (kinases); BPS Bioscience (epigenetic targets)
Procedure: as §1, §2, §3, §4

[37] = molecular target: T20, MEK1 (Homo sapiens, UniProt Q02750); assay: KINOMEscan kinase profiling; format: binding; conditions: read-out: Percent Control
T20 construct: purchased DiscoverX KINOMEscan (kinases); BPS Bioscience (epigenetic targets)
Procedure: as §1, §2, §3, §4

[38] = molecular target: T21, PAK1 (Homo sapiens, UniProt Q13153); assay: KINOMEscan kinase profiling; format: binding; conditions: read-out: Percent Control
T21 construct: purchased DiscoverX KINOMEscan (kinases); BPS Bioscience (epigenetic targets)
Procedure: as §1, §2, §3, §4

[39] = molecular target: T22, PIM3 (Homo sapiens, UniProt Q86V86); assay: KINOMEscan kinase profiling; format: binding; conditions: read-out: Percent Control
T22 construct: purchased DiscoverX KINOMEscan (kinases); BPS Bioscience (epigenetic targets)
Procedure: as §1, §2, §3, §4

[40] = molecular target: T23, PLK4 (Homo sapiens, UniProt O00444); assay: KINOMEscan kinase profiling; format: binding; conditions: read-out: Percent Control
T23 construct: purchased DiscoverX KINOMEscan (kinases); BPS Bioscience (epigenetic targets)
Procedure: as §1, §2, §3, §4

[41] = molecular target: T24, ULK2 (Homo sapiens, UniProt Q8IYT8); assay: KINOMEscan kinase profiling; format: binding; conditions: read-out: Percent Control
T24 construct: purchased DiscoverX KINOMEscan (kinases); BPS Bioscience (epigenetic targets)
Procedure: as §1, §2, §3, §4

[42] = tested on: OCI-Ly1; assay: Cell proliferation assay (MTS); format: cell-based; conditions: Homo sapiens, GC-DLBCL, 48 h
[43] = 10 µM, read-out: Percent Control

T4 sequence (O14744 whole entry): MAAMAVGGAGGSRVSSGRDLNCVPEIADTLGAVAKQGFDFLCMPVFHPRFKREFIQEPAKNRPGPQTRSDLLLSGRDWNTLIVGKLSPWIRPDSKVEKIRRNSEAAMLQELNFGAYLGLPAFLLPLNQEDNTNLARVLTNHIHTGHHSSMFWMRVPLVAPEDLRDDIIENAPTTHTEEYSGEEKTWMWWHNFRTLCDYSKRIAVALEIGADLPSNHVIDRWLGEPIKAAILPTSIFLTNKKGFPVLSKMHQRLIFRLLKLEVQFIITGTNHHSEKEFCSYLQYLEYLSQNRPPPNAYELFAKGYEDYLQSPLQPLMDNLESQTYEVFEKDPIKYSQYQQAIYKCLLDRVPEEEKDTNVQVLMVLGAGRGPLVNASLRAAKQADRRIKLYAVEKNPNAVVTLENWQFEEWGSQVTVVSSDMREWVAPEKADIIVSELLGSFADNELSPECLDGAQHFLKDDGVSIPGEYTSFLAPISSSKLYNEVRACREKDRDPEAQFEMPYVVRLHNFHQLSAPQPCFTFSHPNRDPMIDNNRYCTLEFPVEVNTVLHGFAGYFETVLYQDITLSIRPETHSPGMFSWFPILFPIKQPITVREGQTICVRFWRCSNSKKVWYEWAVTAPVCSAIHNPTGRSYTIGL
T4 sequence (Q9BQA1 whole entry partner): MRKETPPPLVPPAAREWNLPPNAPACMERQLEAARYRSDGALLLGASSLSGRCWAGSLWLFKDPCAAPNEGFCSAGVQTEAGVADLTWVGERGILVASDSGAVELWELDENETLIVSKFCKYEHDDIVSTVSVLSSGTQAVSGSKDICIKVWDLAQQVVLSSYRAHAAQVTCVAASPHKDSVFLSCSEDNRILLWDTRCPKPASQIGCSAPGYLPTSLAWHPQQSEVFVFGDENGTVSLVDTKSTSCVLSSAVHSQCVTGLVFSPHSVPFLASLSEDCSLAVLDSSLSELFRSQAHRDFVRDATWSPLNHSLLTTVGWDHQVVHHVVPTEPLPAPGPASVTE
T14 sequence (Q9UBN7 whole entry): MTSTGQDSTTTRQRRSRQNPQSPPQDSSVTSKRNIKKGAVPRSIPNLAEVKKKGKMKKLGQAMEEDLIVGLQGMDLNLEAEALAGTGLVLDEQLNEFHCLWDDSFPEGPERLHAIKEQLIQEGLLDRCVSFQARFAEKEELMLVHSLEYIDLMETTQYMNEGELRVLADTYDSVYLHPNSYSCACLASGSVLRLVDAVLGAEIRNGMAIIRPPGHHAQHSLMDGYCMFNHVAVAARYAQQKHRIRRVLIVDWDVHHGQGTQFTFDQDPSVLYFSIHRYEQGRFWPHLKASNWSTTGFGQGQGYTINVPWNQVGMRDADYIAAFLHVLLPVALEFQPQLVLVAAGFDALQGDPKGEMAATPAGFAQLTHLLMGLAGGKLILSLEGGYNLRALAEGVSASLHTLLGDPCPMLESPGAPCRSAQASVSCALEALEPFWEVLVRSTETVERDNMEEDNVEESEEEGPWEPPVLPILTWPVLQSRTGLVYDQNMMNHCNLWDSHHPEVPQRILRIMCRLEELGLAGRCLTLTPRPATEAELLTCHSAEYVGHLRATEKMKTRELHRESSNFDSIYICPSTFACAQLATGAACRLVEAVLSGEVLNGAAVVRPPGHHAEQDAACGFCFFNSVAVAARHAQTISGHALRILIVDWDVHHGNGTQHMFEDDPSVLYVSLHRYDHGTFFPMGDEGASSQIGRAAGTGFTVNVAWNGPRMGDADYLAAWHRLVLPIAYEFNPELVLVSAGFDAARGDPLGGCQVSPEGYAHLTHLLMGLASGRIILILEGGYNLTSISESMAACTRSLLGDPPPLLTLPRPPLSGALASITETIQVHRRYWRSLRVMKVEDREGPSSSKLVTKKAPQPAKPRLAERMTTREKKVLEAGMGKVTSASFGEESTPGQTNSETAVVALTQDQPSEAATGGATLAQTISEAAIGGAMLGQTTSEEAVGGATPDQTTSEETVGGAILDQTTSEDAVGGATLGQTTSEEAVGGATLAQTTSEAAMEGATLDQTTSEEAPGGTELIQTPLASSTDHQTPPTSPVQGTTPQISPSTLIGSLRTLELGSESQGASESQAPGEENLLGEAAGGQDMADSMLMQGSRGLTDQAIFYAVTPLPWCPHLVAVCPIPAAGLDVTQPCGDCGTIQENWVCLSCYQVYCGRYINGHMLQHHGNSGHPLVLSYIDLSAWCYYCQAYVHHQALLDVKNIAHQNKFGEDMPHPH
T9 sequence (O94953 whole entry): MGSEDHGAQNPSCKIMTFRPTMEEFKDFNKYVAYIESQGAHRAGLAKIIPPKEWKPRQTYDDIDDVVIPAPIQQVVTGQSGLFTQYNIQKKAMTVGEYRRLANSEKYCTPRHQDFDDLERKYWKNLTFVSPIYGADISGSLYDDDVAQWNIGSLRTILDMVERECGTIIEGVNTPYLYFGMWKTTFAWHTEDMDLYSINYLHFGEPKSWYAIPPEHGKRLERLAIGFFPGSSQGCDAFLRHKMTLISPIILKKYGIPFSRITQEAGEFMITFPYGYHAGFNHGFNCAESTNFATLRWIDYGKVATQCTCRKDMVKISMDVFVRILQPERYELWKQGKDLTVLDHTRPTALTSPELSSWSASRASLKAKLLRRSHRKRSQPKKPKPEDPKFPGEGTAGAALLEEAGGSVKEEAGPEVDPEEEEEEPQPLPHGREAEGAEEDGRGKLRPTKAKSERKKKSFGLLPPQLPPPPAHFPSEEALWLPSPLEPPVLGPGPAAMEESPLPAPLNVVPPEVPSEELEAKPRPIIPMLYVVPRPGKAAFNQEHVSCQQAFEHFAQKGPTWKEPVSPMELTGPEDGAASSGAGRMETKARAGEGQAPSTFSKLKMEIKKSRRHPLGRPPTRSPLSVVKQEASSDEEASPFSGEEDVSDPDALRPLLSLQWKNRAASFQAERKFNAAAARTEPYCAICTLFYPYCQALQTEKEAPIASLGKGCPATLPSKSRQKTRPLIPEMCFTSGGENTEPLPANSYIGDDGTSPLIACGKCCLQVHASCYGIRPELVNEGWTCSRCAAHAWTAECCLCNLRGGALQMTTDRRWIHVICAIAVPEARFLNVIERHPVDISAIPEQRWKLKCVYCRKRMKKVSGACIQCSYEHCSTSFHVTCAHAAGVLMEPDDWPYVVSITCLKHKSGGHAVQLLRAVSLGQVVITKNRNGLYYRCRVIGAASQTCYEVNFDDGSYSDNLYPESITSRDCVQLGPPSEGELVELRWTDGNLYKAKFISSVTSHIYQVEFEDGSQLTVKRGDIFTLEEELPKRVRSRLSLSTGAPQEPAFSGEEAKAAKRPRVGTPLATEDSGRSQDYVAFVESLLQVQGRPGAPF
T6 sequence (Q8WTS6 whole entry): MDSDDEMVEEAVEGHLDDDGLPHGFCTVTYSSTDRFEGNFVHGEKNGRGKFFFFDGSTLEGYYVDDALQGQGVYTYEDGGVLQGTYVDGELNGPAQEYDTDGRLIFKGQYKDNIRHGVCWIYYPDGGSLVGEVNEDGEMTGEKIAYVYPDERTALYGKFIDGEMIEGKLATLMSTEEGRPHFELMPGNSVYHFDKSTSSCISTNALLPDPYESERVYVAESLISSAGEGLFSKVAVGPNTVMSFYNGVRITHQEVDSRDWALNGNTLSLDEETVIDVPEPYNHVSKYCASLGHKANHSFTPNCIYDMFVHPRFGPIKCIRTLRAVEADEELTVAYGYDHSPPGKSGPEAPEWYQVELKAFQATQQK
T8 sequence (O15164 whole entry): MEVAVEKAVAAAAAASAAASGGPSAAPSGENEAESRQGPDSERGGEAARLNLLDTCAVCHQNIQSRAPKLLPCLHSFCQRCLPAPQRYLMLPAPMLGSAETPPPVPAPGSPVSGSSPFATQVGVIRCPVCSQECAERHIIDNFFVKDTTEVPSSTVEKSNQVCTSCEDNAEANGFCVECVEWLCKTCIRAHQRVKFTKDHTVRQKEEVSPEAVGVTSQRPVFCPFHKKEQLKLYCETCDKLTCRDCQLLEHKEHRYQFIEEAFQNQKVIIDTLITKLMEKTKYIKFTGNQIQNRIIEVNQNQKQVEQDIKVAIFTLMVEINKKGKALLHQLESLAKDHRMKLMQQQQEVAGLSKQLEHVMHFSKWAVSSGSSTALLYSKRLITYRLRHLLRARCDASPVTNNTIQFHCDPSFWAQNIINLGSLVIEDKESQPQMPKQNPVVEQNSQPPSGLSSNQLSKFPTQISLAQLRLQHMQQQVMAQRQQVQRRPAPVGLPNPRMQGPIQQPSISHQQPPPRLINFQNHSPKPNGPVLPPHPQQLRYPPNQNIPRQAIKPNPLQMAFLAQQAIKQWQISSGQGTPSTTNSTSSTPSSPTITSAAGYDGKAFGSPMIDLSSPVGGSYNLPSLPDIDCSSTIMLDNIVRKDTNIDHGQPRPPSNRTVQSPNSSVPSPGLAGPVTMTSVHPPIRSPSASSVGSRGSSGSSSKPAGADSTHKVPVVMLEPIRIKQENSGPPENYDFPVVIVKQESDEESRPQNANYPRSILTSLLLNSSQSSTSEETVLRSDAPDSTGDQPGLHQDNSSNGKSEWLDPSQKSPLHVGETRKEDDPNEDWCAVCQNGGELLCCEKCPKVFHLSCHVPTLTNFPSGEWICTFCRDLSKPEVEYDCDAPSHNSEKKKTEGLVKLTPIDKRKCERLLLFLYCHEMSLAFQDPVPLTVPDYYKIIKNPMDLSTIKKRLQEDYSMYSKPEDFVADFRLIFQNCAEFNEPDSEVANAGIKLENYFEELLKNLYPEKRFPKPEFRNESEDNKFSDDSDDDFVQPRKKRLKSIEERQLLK

COc1cc2c(NCC3CCN(C)CC3)cc(-c3ccc(C)o3)nc2cc1OCCCN1CCCC1 [CM-579, 6-methoxy-2-(5-methyl-2-furyl)-N-[(1-methyl-4-piperidyl)methyl]-7-(3-pyrrolidin-1-ylpropoxy)quinolin-4-amine]
IC50 [1]: 1000 nM | inhibition at 10 µM [2]: 17% | inhibition at 10 µM [3]: 6% | inhibition at 10 µM [4]: 0% | inhibition at 10 µM [5]: 12% | inhibition at 10 µM [6]: 0% | inhibition at 10 µM [7]: 0% | inhibition at 10 µM [8]: 0% | inhibition at 10 µM [9]: 40% | inhibition at 10 µM [10]: 8% | inhibition at 10 µM [11]: 3% | inhibition at 10 µM [12]: 27% | inhibition at 10 µM [13]: 27% | inhibition at 10 µM [14]: 0% | AUC(0-t) ([15]; 1 mg/kg): 0.268 µM·h | Cmax ([15]; 1 mg/kg): 191 nM | clearance ([15]; 1 mg/kg): 95 mL/min/kg | half-life ([15]; 1 mg/kg): 376 min | GI50 [16]: > 10 µM | GI50 [17]: > 10 µM | GI50 [18]: 5.21 µM | GI50 [19]: > 10 µM | GI50 [20]: 1020 nM | GI50 [21]: 4350 nM | GI50 [22]: 7.82 µM | GI50 [23]: 141 nM | GI50 [24]: 173 nM | GI50 [25]: 319 nM | GI50 [26]: 531 nM | GI50 [27]: 109 nM | GI50 [28]: 69 nM | GI50 [29]: 168 nM | GI50 [30]: 307 nM | GI50 [31]: 613 nM

COc1cc2c(NC3CCN(C)CC3)cc(-c3ccc(C)o3)nc2cc1OCCCN1CCCC1 [CM-272, 6-methoxy-2-(5-methyl-2-furyl)-N-(1-methyl-4-piperidyl)-7-(3-pyrrolidin-1-ylpropoxy)quinolin-4-amine]
IC50 [1]: 1200 nM | inhibition at 10 µM [2]: 6% | inhibition at 10 µM [3]: 5% | inhibition at 10 µM [4]: 6% | inhibition at 10 µM [5]: 11% | inhibition at 10 µM [6]: 3% | inhibition at 10 µM [7]: 0% | inhibition at 10 µM [8]: 0% | inhibition at 10 µM [9]: 2% | inhibition at 10 µM [10]: 1% | inhibition at 10 µM [11]: 9% | inhibition at 10 µM [12]: 2% | inhibition at 10 µM [13]: 5% | inhibition at 10 µM [14]: 0% | clearance ([15]; […]): 15.2 mL/min/kg | half-life ([15]; […]): 1450 min | remaining binding at 10 µM [32, 43]: 0.5% | Kd ([32]; KINOMEscan): 820 nM | remaining binding at 10 µM [33, 43]: 0% | Kd ([33]; KINOMEscan): 1600 nM | remaining binding at 10 µM [34]: 96% | remaining binding at 10 µM [35]: 100% | remaining binding at 10 µM [36]: 100% | remaining binding at 10 µM [37]: 45% | remaining binding at 10 µM [38]: 69% | remaining binding at 10 µM [39]: 81% | remaining binding at 10 µM [40]: 80% | remaining binding at 10 µM [41]: 9.8% | GI50 [16]: > 5 µM | GI50 [17]: > 5 µM | GI50 [42]: 1010 nM | GI50 [18]: 7.14 µM | GI50 [19]: 3.54 µM | GI50 [20]: 604 nM | GI50 [21]: 1320 nM | GI50 [22]: 1.63 µM | GI50 [23]: 456 nM | GI50 [24]: 725 nM | GI50 [25]: 899 nM | GI50 [26]: 964 nM | GI50 [27]: 689 nM | GI50 [28]: 378 nM | GI50 [29]: 854 nM | GI50 [30]: 590 nM | GI50 [31]: 751 nM

Reference: paper PMC5458547, “Discovery of first-in-class reversible dual small molecule inhibitors against G9a and DNMTs in hematological malignancies” (Nature Communications, 2017)
